Assay results published in US12084462B2, “Spiro bicyclic inhibitors of menin-MLL interaction” (Janssen Pharmaceutica NV, priority 2016, dated 2024).

Tested on: MV-4-11
Test: Proliferation assay (spheroid assay) MV-4-11
Assay type: cell-based, human
Details: Homo sapiens, MV4-11, MV-4-11; averaged values; read-out: Spheroid assay MV-4-11 (IC50 (μM))
Method: The anti-proliferative effect of menin/MLL protein/protein interaction inhibitor test compounds was assessed in human leukemia cell lines. The cell lines MV-4-11 and MOLM14 harbor MLL translocations and express the MLL fusion proteins MLL-AF4 and MLL-AF9, respectively, as well as the wildtype protein from the second allele. […] K562 and KG1 were used as a control cell lines containing two MLL wildtype alleles in order to exclude compounds that display general cytotoxic effects.
MV-4-11 and MOLM14 were cultured in RPMI-1640 (Sigma Aldrich) supplemented with 10% fetal bovine serum (HyClone), 2 mM L-glutamine (Sigma Aldrich) and 50 μg/ml gentamycin (Gibco). K562 were propagated in RPMI-1640 (Sigma Aldrich) supplemented with 20% fetal bovine serum (HyClone), 2 mM L-glutamine (Sigma Aldrich) and 50 μg/ml gentamycin (Gibco). KG1 were cultured in Iscove's MDM (Gibco) supplemented with 20% fetal bovine serum (HyClone), 2 mM L-glutamine (Sigma Aldrich) and 50 μg/ml gentamycin (Gibco).
In order to assess the anti-proliferative effects, 1,500 MV-4-11, 300 MOLM14, 750 K562 or 1,300 KG1 cells were seeded in 200 μl media per well in 96-well round bottom, ultra-low attachment plates (Costar, catalogue number 7007). Cell seeding numbers were chosen based on growth curves to ensure linear growth throughout the experiment. Test compounds were added at different concentrations and the DMSO content was normalized to 0.3%. Cells were incubated for 8 d at 37° C. and 5% CO2. Spheroid like growth was monitored in real-time by live-cell imaging (IncuCyteZOOM, Essenbio, 4× objective) acquiring one image every four hours for 8 d. Confluence (%) as a measure of spheroid size was determined using an integrated analysis tool.
In order to determine the cumulative effect of the test compounds over time, the area under the curve (AUC) in a plot of confluence against time was calculated. Confluence at the beginning of the experiment (t=0) was used as baseline for the AUC calculation.
Absolute IC50 values were calculated according to the following procedure: % Control=(AUC sample/AUC control)*100 AUC control=mean AUC of control values (cells without compound/DMSO as vehicle control)
A non-linear curve fit was applied using the least squares (ordinary) fit method to the plot of % control versus compound concentration. Based on this, the absolute IC50 value (half maximal inhibitory concentration of the test compound causing an anti-proliferative effect of 50% relative to the vehicle control) was calculated.

Row | IC50 [µM] | SMILES
1 | 1.5 | CC(C)[C@H](c1cnn(C)c1)N1CC[C@]2(CCN(c3ncnc4sc(CC(F)(F)F)cc34)C2)C1 (single isomer, unassigned) [Compound 188]
2 | 0.71 | CC[C@@H](C)[C@H](c1cnn(C)c1)N1CC2(CCN(c3ncnc4sc(CC(F)(F)F)cc34)C2)C1 (single isomer, unassigned) [Compound 235]
3 | 1.2 | CC[C@@H](C)[C@@H](c1cnn(C)c1)N1CC2(CCN(c3ncnc4sc(CC(F)(F)F)cc34)C2)C1 (single isomer, unassigned) [Compound 237]
4 | 1.67 | CC(C)CCN1CC[C@@]2(CCN(c3ncnc4sc(CC(F)(F)F)cc34)C2)C1 (single isomer, unassigned) [Compound 293]
5 | 1.83 | CC(C)CCN1CC[C@]2(CCN(c3ncnc4sc(CC(F)(F)F)cc34)C2)C1 (single isomer, unassigned) [Compound 294]
6 | 4.89 | FC(F)(F)Cc1cc2c(N3CC[C@@]4(CCN(CCc5ccccc5)C4)C3)ncnc2s1 (single isomer, unassigned) [Compound 296]
7 | 4.23 | Fc1ccc(CCN2CC[C@@]3(CCN(c4ncnc5sc(CC(F)(F)F)cc45)C3)C2)cc1 (single isomer, unassigned) [Compound 298]
8 | 3.18 | Cn1cc(CN2CC[C@]3(CCN(c4ncnc5sc(CC(F)(F)F)cc45)C3)C2)cn1 (single isomer, unassigned) [Compound 299]
9 | 3.6 | CC(C)CC(C1CCC2(CCCC2)OC1)N1CC2(CCN(c3ncnc4sc(CC(F)(F)F)cc34)C2)C1 (single isomer, unassigned) [Compound 313]
10 | 3.4 | Cc1ccccc1CN1CC2(CCN(c3ncnc4sc(CC(F)(F)F)cc34)C2)C1 [Compound 45]
11 | 4.1 | Cc1cccc(CN2CC3(CCN(c4ncnc5sc(CC(F)(F)F)cc45)C3)C2)c1 [Compound 46]
12 | 2.1 | Cc1ccc(CN2CC3(CCN(c4ncnc5sc(CC(F)(F)F)cc45)C3)C2)cc1 [Compound 49]
13 | 3.7 | Fc1ccccc1CN1CC2(CCN(c3ncnc4sc(CC(F)(F)F)cc34)C2)C1 [Compound 54]
14 | 4.9 | Fc1cccc(CN2CC3(CCN(c4ncnc5sc(CC(F)(F)F)cc45)C3)C2)c1 [Compound 56]
15 | 2.7 | CC(C)CN1CCC2(C1)CN(c1ncnc3sc(CC(F)(F)F)cc13)C2 [Compound 58]
16 | 4.9 | FC(F)(F)Cc1cc2c(N3CCC4(CN(CCC5CCOCC5)C4)C3)ncnc2s1 [Compound 67]
17 | 1.2 | FC(F)(F)Cc1cc2c(N3CCC4(CN(CCc5ccccc5)C4)C3)ncnc2s1 [Compound 69]
18 | 1.1 | COCCn1cc(C(C(C)C)N2CC3(CCN(c4ncnc5sc(CC(F)(F)F)cc45)C3)C2)cn1 (stereo not shown) [Compound 71]
19 | 12.1 | NCCn1cc(CN2CC3(CCN(c4ncnc5sc(CC(F)(F)F)cc45)C3)C2)cn1 [Compound 77]
20 | > 15 | CN1CC2(CC2)C[C@H]1C(=O)N1CC2(C1)CN(c1ncnc3sc(CC(F)(F)F)cc13)C2 [Compound 108]
21 | 8.1 | O=C([C@H]1CC2(CC2)CN1)N1CC2(C1)CN(c1ncnc3sc(CC(F)(F)F)cc13)C2 [Compound 109]
22 | 4 | CO[C@@H]1CN[C@H](C(=O)N2CC3(C2)CN(c2ncnc4sc(CC(F)(F)F)cc24)C3)C1 [Compound 110]
23 | 9.3 | CO[C@H]1CN[C@H](C(=O)N2CC3(C2)CN(c2ncnc4sc(CC(F)(F)F)cc24)C3)C1 [Compound 111]
24 | 2.4 | C[C@@H](C1CCNCC1)N1CC2(CCN(c3ncnc4sc(CC(F)(F)F)cc34)C2)C1 [Compound 146]
25 | 8.2 | C[C@H](C1CCNCC1)N1CC2(CCN(c3ncnc4sc(CC(F)(F)F)cc34)C2)C1 [Compound 147]
26 | 0.33 | CC(C)C(C1CCNCC1)N1CC2(CCN(c3ncnc4sc(CC(F)(F)F)cc34)C2)C1 (stereo not shown) [Compound 148]
27 | 2 | C[C@H](C1CNC1)N1CC2(CCN(c3ncnc4sc(CC(F)(F)F)cc34)C2)C1 [Compound 150]
28 | 0.79 | CC(C)C(C1CCOCC1)N1CC2(CCN(c3ncnc4sc(CC(F)(F)F)cc34)C2)C1 (stereo not shown) [Compound 156]
